Test results as given in ChEMBL document CHEMBL1201862, “PubChem BioAssay data set” (2004).
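Values below derive from 48-hour exposures of cells grown in 96-well plates, with endpoints linearly interpolated between the two concentrations bracketing the appropriate inhibition level. GI50 is the concentration that inhibits growth by half.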 Activity calls are given as the source filed them. No stated cut-off is given here; in the data, active = GI50 up to about 1.1 µM and inactive = higher.

Experiments:
Assay in all cases: NCI anticancer screen, dose series, 48 h
[1] = system: ACHN
[2] = system: DLD-1
[3] = system: DMS-114
[4] = system: DMS-273
[5] = system: HCT-116
[6] = system: KM12
[7] = system: LXFL 529
[8] = system: NCI-H522
[9] = system: OVCAR-5
[10] = system: SF-295
[11] = system: SF-539
[12] = system: SK-MEL-2
[13] = system: SK-MEL-5
[14] = system: SNB-78

Measured: GI50

CC(SC1=CC(=O)c2c(O)ccc(O)c2C1=O)C(=O)O (stereo unspecified)
inactive: [1] 26.7 µM | [2] > 39.8 µM | [3] 19.5 µM | [4] > 60.4 µM | [5] 31.2 µM | [6] > 100 µM | [7] > 35.5 µM | [8] 1.51 µM | [9] > 100 µM | [10] > 100 µM | [11] > 68.5 µM | [12] > 100 µM | [13] > 61.5 µM | [14] > 47.4 µM

Cc1cc(N(CCC#N)CCC#N)ccc1/N=N/c1cc(Cl)ccc1Cl
inactive: [1] 12.8 µM | [2] 10.6 µM | [3] 6.59 µM | [4] 14.4 µM | [6] 15.2 µM | [7] 1.7 µM | [8] 1.49 µM | [9] 14.4 µM | [10] 19.6 µM | [11] 6.28 µM | [12] 17.3 µM | [13] 16.4 µM | [14] 6.22 µM

CC1NC(=O)C2=C1C(N)=NC(=O)C2 (stereo unspecified)
inactive: [1] > 100 µM | [2] > 100 µM | [3] > 100 µM | [4] > 100 µM | [5] > 100 µM | [6] > 100 µM | [7] > 100 µM | [8] > 100 µM | [9] > 100 µM | [10] > 100 µM | [11] > 100 µM | [12] > 100 µM | [13] > 100 µM | [14] > 100 µM

COc1cccc(/C=C/C(=O)c2sc(C(N)=S)nc2C)c1O
inactive: [1] > 100 µM | [2] 28.3 µM | [3] 50.6 µM | [4] 28.6 µM | [5] 38.5 µM | [6] > 62.2 µM | [7] 14.3 µM | [8] > 48.3 µM | [9] > 100 µM | [10] > 94.6 µM | [11] 52.7 µM | [12] > 100 µM | [13] > 100 µM | [14] > 100 µM

N#Cc1ccccc1C(Cl)(Cl)c1cnccn1
inactive: [1] 59.6 µM | [2] 47.3 µM | [3] 22.4 µM | [4] 37.2 µM | [6] 37.8 µM | [7] 75.9 µM | [8] 19.8 µM | [9] > 100 µM | [10] 47 µM | [11] 32.4 µM | [12] 67 µM | [13] 20.4 µM | [14] 46.3 µM

CC1=C(C(=O)Nc2ccccc2C)C(c2ccc(Cl)c(Cl)c2)C(C(=O)Nc2ccccc2C)=C(C)N1
inactive: [1] 27.3 µM | [2] 27.9 µM | [3] 17.4 µM | [4] 16.7 µM | [5] 16 µM | [6] 26.2 µM | [7] 14.4 µM | [8] 14.5 µM | [9] 23.1 µM | [10] 21.6 µM | [11] 25.5 µM | [12] 16.1 µM | [13] 17.5 µM | [14] 29.4 µM

Cc1cc(O)nc(NNC(C#N)c2ccc(O)cc2)n1 (stereo unspecified)
inactive: [1] > 100 µM | [2] > 100 µM | [3] > 100 µM | [4] > 100 µM | [5] > 100 µM | [6] > 100 µM | [7] > 100 µM | [8] > 100 µM | [9] > 100 µM | [10] > 100 µM | [11] > 100 µM | [12] > 100 µM | [13] > 100 µM | [14] 83.8 µM
